Structures can show the parent of a compound that is named as a salt.
How the values were obtained:
[1] = target: T1, Human vitronectin receptor (αv β3) (Homo sapiens, UniProt P05106+P06756); test: Vitronectin adhesion assay (solid phase receptor assay, biotinylated vitronectin competition); assay type: binding; conditions: inhibition of 50% of the maximum binding of biotinylated vitronectin; 1 nM labeled ligand, 2 hours, room temperature, highest concentration of test compound 1.0×10^-4 M; read-out: AvB3 IC50
T1 construct: Human vitronectin receptor(αv β3) was purified from human placenta; from tissue; host or cells: human placenta
Protocol: VITRONECTIN ADHESION ASSAY Human vitronectin receptor(αv β3) was purified from human placenta as previously described [Pytela et al., Methods in Enzymology, 144:475-489 (1987)). Human vitronectin was purified from fresh frozen plasma as previously described [Yatohgo et al., Cell Structure and Function, 13:281-292 (1988)]. Biotinylated human vitronectin was prepared by coupling NHS-biotin from Pierce Chemical Company (Rockford, Ill.) to purified vitronectin as previously described [Charo et al., J. Biol. Chem., 266(3):1415-1421 (1991)]. Assay buffer, OPD substrate tablets, and RIA grade BSA were obtained from Sigma (St. Louis, Mo.). Anti-biotin antibody was obtained from Calbiochem (La Jolla, Calif.). Linbro microtiter plates were obtained from Flow Labs (McLean, Va.). ADP reagent was obtained from Sigma (St. Louis, Mo.). Solid Phase Receptor Assays This assay was essentially the same as previously reported [Niiya et al., Blood, 70:475-483 (1987)]. The purified human vitronectin receptor (αv β3) was diluted from stock solutions to 1.0 μg/mL in Tris-buffered saline containing 1.0 mM Ca^++, Mg^++, and Mn^++, pH 7.4 (TBS^+++). The diluted receptor was immediately transferred to Linbro microtiter plates at 100 μL/well (100 ng receptor/well). The plates were sealed and incubated overnight at 4° C. to allow the receptor to bind to the wells. All remaining steps were at room temperature. The assay plates were emptied and 200 μL of 1% RIA grade BSA in TBS^+++ (TBS^+++ /BSA) were added to block exposed plastic surfaces. Following a 2 hour incubation, the assay plates were washed with TBS^+++ using a 96 well plate washer. Logarithmic serial dilution of the test compound and controls were made starting at a stock concentration of 2 mM and using 2 nM biotinylated vitronectin in TBS^+++ /BSA as the diluent. This premixing of labeled ligand with test (or control) ligand, and subsequent transfer of 50 μL aliquots to the assay plate was carried out with a CETUS Propette robot; the final concentration of the labeled ligand was 1 nM and the highest concentration of test compound was 1.0×10^-4 M. The competition occurred for two hours after which all wells were washed with a plate washer as before. Affinity purified horseradish peroxidase labeled goat antibiotin antibody was diluted 1:3000 in TBS^+++ /BSA and 125 μL were added to each well. After 30 minutes, the plates were washed and incubated with OPD/H2 O2 substrate in 100 mM/L Citrate buffer, pH 5.0. The plate was read with a microtiter plate reader at a wavelength of 450 nm and when the maximum-binding control wells reached an absorbance of about 1.0, the final A450 were recorded for analysis. The data were analyzed using a macro written for use with the EXCEL™ spreadsheet program. The mean, standard deviation, and %CV were determined for duplicate concentrations. The mean A450 values were normalized to the mean of four maximum-binding controls (no competitor added)(B-MAX). The normalized values were subjected to a four parameter curve fit algorithm [Rodbard et al., Int.

[2] = target: T2, Human fibrinogen receptor (αIIb β3) (Homo sapiens, UniProt P05106+P08514); test: Purified IIb/IIIa receptor assay (solid phase receptor assay, biotinylated vitronectin competition); conditions: inhibition of 50% of the maximum binding of biotinylated vitronectin; 1 nM labeled ligand, 2 hours, room temperature, highest concentration of test compound 1.0×10^-4 M
T2 construct: Human fibrinogen receptor (αIIb β3) was purified from outdated platelets; from tissue; host or cells: outdated human platelets
Excerpt: PURIFIED IIb/IIIa RECEPTOR ASSAY Human fibrinogen receptor (αIIb β3) was purified from outdated platelets. (Pytela, R., Pierschbacher, […]., Suzuki, S., and […] acid adhesion receptors", Methods in Enzymology 144(1987):475-489.) Human vitronectin was purified from fresh frozen plasma as described in Yatohgo, T., Izumi, M., Kashiwagi, H., and Hayashi, M., "Novel purification of vitronectin from human plasma by heparin affinity chromatography," Cell Structure and Function 13(1988):281-292. Biotinylated human vitronectin was prepared by coupling NHS-biotin from Pierce Chemical Company (Rockford, Ill.) to purified vitronectin as previously described. (Charo, […]., Phillips, D. R., Hsu, M. A., Scarborough, R. M., "Inhibition of fibrinogen binding to GP IIb/IIIa by a GP IIIa peptide", J. Biol. Chem. 266(3)(1991):1415-1421.) Assay buffer, OPD substrate tablets, and RIA grade BSA were obtained from Sigma (St. Louis, Mo.). Anti-biotin antibody was obtained from Calbiochem (La Jolla, Calif.). Linbro microtiter plates were obtained from Flow Labs (McLean, Va.). ADP reagent was obtained from Sigma (St. Louis, Mo.). Solid Phase Receptor Assays This assay is essentially the same reported in […]., Bader, R., Byers-Ward, […]., Plow, E. F. and Ruggeri, Z. M., "Increased surface expression of the membrane glycoprotein IIb/IIIa complex induced by platelet activation: Relationships to the binding of fibrinogen and platelet aggregation", Blood 70(1987):475-483. The purified human fibrinogen receptor (αIIb β3) was diluted from stock solutions to 1.0 μg/mL in Tris-buffered saline containing 1.0 mM Ca^++, Mg^++, and Mn^++, pH 7.4 (TBS^+++). The diluted receptor was immediately transferred to Linbro microtiter plates at 100 μL/well (100 ng receptor/well). The plates were sealed and incubated overnight at 4° C. to allow the receptor to bind to the wells. All remaining steps were at room temperature. The assay plates were emptied and 200 μL of 1% RIA grade BSA in TBS^+++ (TBS^+++ /BSA) were added to block exposed plastic surfaces. Following a 2 hour incubation, the assay plates were washed with TBS^+++ using a 96 well plate washer. Logarithmic serial dilution of the test compound and controls were made starting at a stock concentration of 2 mM and using 2 nM biotinylated vitronectin in TBS^+++ /BSA as the diluent. This premixing of labeled ligand with test (or control) ligand, and subsequent transfer of 50 μL aliquots to the assay plate was carried out with a CETUS Propette robot; the final concentration of the labeled ligand was 1 nM and the highest concentration of test compound was 1.0×10^-4 M. The competition occurred for two hours after which all wells were washed with a plate washer as before. Affinity purified horseradish peroxidase labeled goat antibiotin antibody was diluted 1:3000 in TBS^+++ /BSA and 125 μL were added to each well. After 30 minutes, the plates were washed and incubated with […]/H2 O2 substrate in 100 mM/L citrate buffer, pH 5.0. The plate was read with a microtiter plate reader at a wavelength of 450 nm and when the maximum-binding control wells reached an absorbance of about 1.0, the final A450 were recorded for analysis. The data were analyzed using a macro written for use with the EXCELTM spreadsheet program. The mean, standard deviation, and %CV were determined for duplicate concentrations. The mean A450 values were normalized to the mean of four maximum-binding controls (no competitor added)(B-MAX). The normalized values were subjected to a four parameter curve fit algorithm, [Robard et al., Int.

IC50 [1] [µM]	IC50 [2] [µM]	Structure (SMILES)
15.3	21.6	NC(=O)Nc1cccc(C(=O)Nc2cccc(C(CC(=O)O)c3ccccc3)c2)c1 (stereo not drawn) [Example 5, 3-[[[3-[(aminocarbonyl)amino]phenyl]carbonyl]amino]-β-phenylbenzenepropanoic acid]
0.641	11.6	NC(=O)Nc1cccc(S(=O)(=O)Nc2cccc(C(CC(=O)O)c3ccccc3)c2)c1 (stereo not drawn) [Example 8, 3-[[[3-[(aminocarbonyl)amino]phenyl]sulfonyl]amino]-β-phenylbenzenepropanoic acid]
0.144	5.54	NC(=S)Nc1cccc(S(=O)(=O)Nc2cccc(C(CC(=O)O)c3ccccc3)c2)c1 (stereo not drawn) [Example 10, 3-[[[3-[(aminothioxomethyl)amino]phenyl]sulfonyl]amino]-β-phenylbenzenepropanoic acid]
0.554	2.44	N=C(N)Nc1cccc(CNc2cccc(C(CC(=O)O)c3ccccc3)c2)c1 (stereo not drawn) [Example 11, 3-[[[3-[(aminoiminomethyl)amino]phenyl]methyl]amino]-β-phenylbenzenepropanoic acid, trifluoroacetate salt]
0.163	11.8	O=C(O)CC(c1ccccc1)c1cccc(NS(=O)(=O)c2cccc(NC(=O)NCc3ccccc3)c2)c1 (stereo not drawn) [Example 13, 3-[[[3-[[[(phenylmethyl)amino]carbonyl]amino]phenyl]sulfonyl]amino]-β-phenylbenzenepropanoic acid, monohydrate]
0.0404	1.36	CC(C)(C)OC(=O)CC(c1ccccc1)c1cccc(NS(=O)(=O)c2cccc(NC(N)=NC#N)c2)c1 (stereo not drawn) [Example 15]
> 100	57.6	CCOC(=O)CCc1cccc(CNC(=O)c2cccc(C#N)c2)c1 [Example 19, ethyl 3-[[[[3-(cyano)phenyl]carbonyl]amino]methyl]benzenepropanoate, diacetate salt]
> 10	4.35	N=C(N)c1cccc(C(=O)NCc2cccc(CCC(=O)O)c2)c1 [Example 23, 3-[[[[3-(aminoiminomethyl)phenyl]carbonyl]amino]methyl]benzenepropanoic acid, trifluoroacetate salt]
> 100	> 100	CCOC(=O)CCc1cccc(CNC(=O)c2cccc(NC(N)=O)c2)c1 [Example 28, ethyl 3-[[[[3-[(aminocarbonyl)amino]phenyl]carbonyl]amino]methyl]benzenepropanoate]
9.37	32	NC(=O)Nc1cccc(C(=O)NCc2cccc(CCC(=O)O)c2)c1 [Example 29, 3-[[[[3-[(aminocarbonyl)amino]phenyl]carbonyl]amino]methyl]benzenepropanoic acid]
> 100	> 100	CCOC(=O)CCc1cccc(CNC(=O)c2cccc(NC(=O)NCc3ccccc3)c2)c1 [Example 30, ethyl 3-[[[[3-[[[(phenylmethyl)amino]carbonyl]amino]phenyl]carbonyl]amino]methyl]benzenepropanoate]
3.57	5.36	O=C(O)CCc1cccc(CNC(=O)c2cccc(NC(=O)NCc3ccccc3)c2)c1 [Example 31, 3-[[[[3-[[[(phenylmethyl)amino]carbonyl]amino]phenyl]carbonyl]amino]methyl]benzenepropanoic acid]
2.93	66.1	CCOC(=O)CCc1cccc(CNC(=O)c2cccc(NC(=N)N)c2)c1 [Example 34, ethyl 3-[[[[3-[(aminoiminomethyl)amino]phenyl]carbonyl]amino]methyl]benzenepropanoate, trifluoroacetate salt]
0.183	6.08	N=C(N)Nc1cccc(C(=O)NCc2cccc(CCC(=O)O)c2)c1 [Example 35, 3-[[[[3-[(aminoiminomethyl)amino]phenyl]carbonyl]amino]methyl]benzenepropanoic acid, trifluoroacetate salt]
13.7	72.4	N=C(N)Nc1cccc(C(=O)Nc2cccc(CCC(=O)O)c2)c1 [Example 36, 3-[[[3-[(aminoiminomethyl)amino]phenyl]carbonyl]amino]benzenepropanoic acid, trifluoroacetate salt]
32.2	79	CCOC(=O)CC(c1ccccc1)c1cccc(CNC(=O)c2cccc(NC(=N)N)c2)c1 (stereo not drawn) [Example 37, ethyl 3-[[[[3-[(aminoiminomethyl)amino]phenyl]carbonyl]amino]methyl]-β-phenylbenzenepropanoate, trifluoroacetate salt]
0.00895	0.364	N=C(N)Nc1cccc(C(=O)NCc2cccc(C(CC(=O)O)c3ccccc3)c2)c1 (stereo not drawn) [Example 38, 3-[[[[3-[(aminoiminomethyl)amino]phenyl]carbonyl]amino]methyl]-β-phenylbenzenepropanoic acid, trifluoroacetate salt]
8.56	62.4	CC(CC(=O)OC(C)(C)C)c1cccc(CNC(=O)c2cccc(NC(=N)N)c2)c1 (stereo not drawn) [Example 39, 1,1-dimethylethyl 3-[[[[3-[(aminoiminomethyl)amino]phenyl]carbonyl]amino]methyl]-β-methyl)benzenepropanoate, trifluoroacetate salt]
